Measurements reported in ChEMBL document CHEMBL5338820, “Discovery and Design of Novel Cyclic Peptides as Specific Inhibitors Targeting CCN2 and Disrupting CCN2/EGFR Interaction for Kidney Fibrosis Treatment” (J Med Chem, 2023).
The source made the active and inactive calls. The rule behind the calls is not given here. Peptide text beside a SMILES is read from it.

Experiments:
[1] = Tmax in Sprague-Dawley rat at 1 mg/kg,SC measured upto 48 hrs by LC-MS/MS analysis; assay type: ADME, organism-based; conditions: in vivo
[2] = target: T1, CCN family member 2 (Homo sapiens) (UniProt P29279); assay: Inhibition of recombinant human CCN2 FL domain expressed in human […] cells assessed as reduction in COL1A1 synthesis at 20 uM incubated for 24 hrs by Western blotting assay; assay type: cell-based
T1 sequence (whole entry): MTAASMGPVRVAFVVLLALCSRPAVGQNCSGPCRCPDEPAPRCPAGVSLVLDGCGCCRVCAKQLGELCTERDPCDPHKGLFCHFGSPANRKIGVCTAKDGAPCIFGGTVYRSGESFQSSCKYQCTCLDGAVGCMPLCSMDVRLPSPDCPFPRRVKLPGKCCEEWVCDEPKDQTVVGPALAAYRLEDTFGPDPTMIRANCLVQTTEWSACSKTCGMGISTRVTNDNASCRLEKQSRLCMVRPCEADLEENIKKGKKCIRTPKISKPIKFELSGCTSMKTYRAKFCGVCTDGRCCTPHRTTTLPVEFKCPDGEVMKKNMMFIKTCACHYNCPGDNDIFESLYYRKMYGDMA

[3] = Toxicity in Unilateral ureteric obstruction C57BL/6J mouse model assessed as change in hair color at 50 microg/kg,ip administrated for 14 days; conditions: in vivo, 0.05 mg/kg, 336 h, dose 50 µg/kg, time 14 day
Mus musculus [4] = assay: Antifibrotic activity against Unilateral ureteric obstruction ligation induced C57BL/6J mouse kidney fibrosis model assessed as reduction of renal tubular injury at 50 microg/kg,ip administrated for 14 days by hematoxylin and eosin staining based analysis; assay type: functional, organism-based; conditions: dose 50.0 µg/kg, time 14.0 day
[5] = target: T1, CCN family member 2 (Homo sapiens); assay: Inhibition of recombinant human CCN2 FL domain expressed in human […] cells assessed as reduction in COL1A1 synthesis at 4 to 100 uM incubated for 24 hrs by Western blotting assay; assay type: cell-based; conditions: dose 4-100 µM
[6] = Toxicity in Unilateral ureteric obstruction C57BL/6J mouse model assessed as change in behaviour at 50 microg/kg,ip administrated for 14 days; conditions: in vivo, 0.05 mg/kg, 336 h, dose 50 µg/kg, time 14 day
[7] = Half life in Sprague-Dawley rat at 1 mg/kg,SC measured upto 48 hrs by LC-MS/MS analysis; assay type: ADME, organism-based; conditions: in vivo
Mus musculus [8] = assay: Antifibrotic activity against Unilateral ureteric obstruction ligation induced C57BL/6J mouse kidney fibrosis model assessed as downregulation of COL1A1 synthesis at 50 microg/kg,ip administrated for 14 days by Western blotting analysis; assay type: functional, organism-based; conditions: dose 50.0 µg/kg, time 14.0 day
CCN2-EGFR (Homo sapiens) [9] = target: T2, CCN2-EGFR (Homo sapiens) (UniProt P00533+P29279); assay: Inhibition of His-tagged full length human CCN2 FL domain/human Fc-tagged EGFR protein-protein interaction using TMB as chromogenic substrate at 100 uM incubated for 140 mins by microplate reader assay relative to control
Mus musculus [10] = assay: Antifibrotic activity against Unilateral ureteric obstruction ligation induced C57BL/6J mouse kidney fibrosis model assessed as downregulation of EGFR phosphorylation at 50 microg/kg,ip administrated for 14 days by Western blotting analysis; assay type: functional, organism-based; conditions: dose 50.0 µg/kg, time 14.0 day
Mus musculus [11] = assay: Antifibrotic activity against Unilateral ureteric obstruction ligation induced C57BL/6J mouse kidney fibrosis model assessed as reduction of inflammatory infiltration at 50 microg/kg,ip administrated for 14 days by hematoxylin and eosin staining based analysis; assay type: functional, organism-based; conditions: dose 50.0 µg/kg, time 14.0 day
[12] = target: T1, CCN family member 2 (Homo sapiens); assay: Inhibition of recombinant human CCN2 FL domain expressed in human HK-1 cells assessed as reduction in fibronectin synthesis at 20 uM incubated for 24 hrs by Western blotting assay; assay type: cell-based
CCN family member 2 = target: T3, CCN family member 2 (Homo sapiens, UniProt P29279); assay: Binding affinity to His-tagged full length human CCN2 CT domain assessed as dissociation constant by isothermal titration calorimetry assay
T3 sequence (P29279 whole entry): T1 sequence (whole entry)

[13] = Cmax in Sprague-Dawley rat at 1 mg/kg,SC measured upto 48 hrs by LC-MS/MS analysis; assay type: ADME, organism-based; design: time < 48 hrs, dose 1 mg/kg, route sc; conditions: in vivo
[14] = Toxicity in Unilateral ureteric obstruction C57BL/6J mouse model assessed as change in body weight at 50 microg/kg,ip administrated for 14 days; conditions: in vivo, 0.05 mg/kg, 336 h, dose 50 µg/kg, time 14 day
[15] = target: T1, CCN family member 2 (Homo sapiens); assay: Inhibition of recombinant human CCN2 CT domain expressed in human […] cells assessed as reduction in fibronectin synthesis at 100 uM incubated for 24 hrs by Western blotting assay; assay type: cell-based
CCN2-EGFR (Homo sapiens) [16] = target: T2, CCN2-EGFR (Homo sapiens); assay: Inhibition of His-tagged full length human CCN2 CT domain/human Fc-tagged EGFR protein-protein interaction using TMB as chromogenic substrate at 100 uM incubated for 140 mins by microplate reader assay relative to control
[17] = target: T1, CCN family member 2 (Homo sapiens); assay: Inhibition of recombinant human CCN2 CT domain expressed in human […] cells assessed as reduction in COL1A1 synthesis at 100 uM incubated for 24 hrs by Western blotting assay; assay type: cell-based
[18] = AUC (0-t) in Sprague-Dawley rat at 1 mg/kg,SC measured upto 48 hrs by LC-MS/MS analysis; assay type: ADME, organism-based; design: time < 48 hrs, dose 1 mg/kg, route sc; conditions: in vivo
[19] = Toxicity in Unilateral ureteric obstruction C57BL/6J mouse model assessed as change in food consumption at 50 microg/kg,ip administrated for 14 days; conditions: in vivo, 0.05 mg/kg, 336 h, dose 50 µg/kg, time 14 day
[20] = target: T1, CCN family member 2 (Homo sapiens); assay: Inhibition of recombinant human CCN2 FL domain expressed in human […] cells assessed as reduction in fibronectin synthesis at 4 to 100 uM incubated for 24 hrs by Western blotting assay; assay type: cell-based; conditions: dose 4-100 µM
[21] = target: T1, CCN family member 2 (Homo sapiens); assay: Inhibition of recombinant human CCN2 FL domain expressed in human […] cells assessed as reduction in STAT3 phosphorylation at 100 uM incubated for 24 hrs by Western blotting assay; assay type: cell-based
Mus musculus [22] = assay: Antifibrotic activity against Unilateral ureteric obstruction ligation induced C57BL/6J mouse kidney fibrosis model assessed as downregulation of STAT3 phosphorylation at 50 microg/kg,ip administrated for 14 days by Western blotting analysis; assay type: functional, organism-based; conditions: dose 50.0 µg/kg, time 14.0 day
Mus musculus [23] = assay: Antifibrotic activity against Unilateral ureteric obstruction ligation induced C57BL/6J mouse kidney fibrosis model assessed as reduction of collagen formation at 50 microg/kg,ip administrated for 14 days by […] staining based analysis; assay type: functional, organism-based; conditions: dose 50.0 µg/kg, time 14.0 day
Mus musculus [24] = assay: Antifibrotic activity against Unilateral ureteric obstruction ligation induced C57BL/6J mouse kidney fibrosis model assessed as downregulation of fibronectin synthesis at 50 microg/kg,ip administrated for 14 days by Western blotting analysis; assay type: functional, organism-based; conditions: dose 50.0 µg/kg, time 14.0 day

T2 sequence (P00533 whole entry, looked up, one chain of several, the tested form may be a part): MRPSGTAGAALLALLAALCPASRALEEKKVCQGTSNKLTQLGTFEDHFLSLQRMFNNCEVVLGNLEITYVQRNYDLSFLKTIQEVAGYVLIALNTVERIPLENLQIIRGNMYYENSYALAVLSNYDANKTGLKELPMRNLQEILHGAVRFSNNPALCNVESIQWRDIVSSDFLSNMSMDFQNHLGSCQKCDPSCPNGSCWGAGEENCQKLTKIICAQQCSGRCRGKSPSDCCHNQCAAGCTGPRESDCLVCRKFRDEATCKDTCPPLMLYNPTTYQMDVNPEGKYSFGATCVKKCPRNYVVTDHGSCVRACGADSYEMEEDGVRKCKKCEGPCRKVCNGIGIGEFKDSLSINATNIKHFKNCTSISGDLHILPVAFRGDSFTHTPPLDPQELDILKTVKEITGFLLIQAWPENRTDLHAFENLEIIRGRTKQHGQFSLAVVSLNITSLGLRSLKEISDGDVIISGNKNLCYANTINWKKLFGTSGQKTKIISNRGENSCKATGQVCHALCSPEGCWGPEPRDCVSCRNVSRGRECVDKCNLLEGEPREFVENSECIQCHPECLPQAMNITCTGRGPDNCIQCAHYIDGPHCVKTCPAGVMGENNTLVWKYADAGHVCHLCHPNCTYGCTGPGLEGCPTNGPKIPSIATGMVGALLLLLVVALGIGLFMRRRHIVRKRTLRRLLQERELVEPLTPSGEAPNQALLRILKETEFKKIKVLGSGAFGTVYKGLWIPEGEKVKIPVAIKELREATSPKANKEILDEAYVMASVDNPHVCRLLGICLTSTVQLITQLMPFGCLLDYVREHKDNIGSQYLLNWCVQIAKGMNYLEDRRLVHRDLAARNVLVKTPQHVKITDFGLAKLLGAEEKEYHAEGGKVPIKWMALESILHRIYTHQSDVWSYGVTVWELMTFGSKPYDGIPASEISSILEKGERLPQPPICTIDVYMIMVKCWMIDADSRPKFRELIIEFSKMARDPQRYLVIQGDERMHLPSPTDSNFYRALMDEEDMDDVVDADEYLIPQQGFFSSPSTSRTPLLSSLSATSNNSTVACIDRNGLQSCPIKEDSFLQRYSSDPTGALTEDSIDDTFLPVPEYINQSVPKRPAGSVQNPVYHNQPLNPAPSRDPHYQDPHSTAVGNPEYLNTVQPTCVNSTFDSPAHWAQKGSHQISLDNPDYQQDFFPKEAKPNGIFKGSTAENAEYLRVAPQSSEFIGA

Tmax [1]: 60 min
inhibition [2]: Active
inhibition [5]: Dose-Dependent Effect
half-life [7]: 54 min
inhibition (CCN2-EGFR (Homo sapiens) [9]): 63.8%
inhibition [12]: Active
Kd (CCN family member 2): 3.1 µM
Cmax [13]: 1060 ng/mL
inhibition [15]: Active
inhibition (CCN2-EGFR (Homo sapiens) [16]): 76.7%
inhibition [17]: Active
AUC(0-t) at 48 h [18]: 3030 ng·h/mL
inhibition [20]: Dose-Dependent Effect
inhibition [21]: Active
SMILES: C[C@@H](O)[C@@H]1NC(=O)[C@H](Cc2c[nH]c3ccccc23)NC(=O)[C@@H]2CCCN2C(=O)[C@H](CCCNC(=N)N)NC(=O)[C@H](Cc2c[nH]cn2)NC(=O)[C@H](CCCCN)NC(=O)[C@H]([C@@H](C)O)NC1=O (cyclo(HRPWTTK))
Activity [3]: Non-Toxic
Activity (Mus musculus [4]): Active
Activity [6]: Non-Toxic
Activity (Mus musculus [8]): Active
Activity (Mus musculus [10]): Active
Activity (Mus musculus [11]): Active
Activity [14]: Non-Toxic
Activity [19]: Non-Toxic
Activity (Mus musculus [22]): Active
Activity (Mus musculus [23]): Active
Activity (Mus musculus [24]): Active
